Literature values in patent US20150366978A1, “Compositions Containing Chondroitin Sulphate, Proteolytic Enzymes and Sulphydryl Compounds for Improving the Bioavailability of Chondroitin Sulphate” (GNOSIS S.P.A., priority 2013, published 2015).

How the values were obtained:
[1] = oral

**Q.** Which oral bioavailability does the source give for bromelain here?
**A.** The oral bioavailability was “around 40%”.

**Q.** For chondroitin sulphate [CS], which “total uptake of CS by the intestinal mucosa” value ([1]; including oligosaccharides, % of the polysaccharide ingested) is on record?
**A.** The value was 20-23%.

**Q.** Which “absorption of high-molecular-weight CS” value ([1]; absorbed as intact polysaccharide) does the source give for “chondroitin sulphate [high-molecular-weight CS]” here?
**A.** Its value is 1-5%.
